Measured values reported in patent publication US20260207592A1, “PHARMACEUTICAL SUSPENSION OF NILOTINIB” (RENATA PHARMACEUTICALS (IRELAND) LIMITED, priority 2022, published 2026).
Converted amounts (≈) assume the structure as drawn. Counter-ions that a name gives are not always drawn.

Legend:
[1] = physchem
[2] = physchem; details: 0.01N HCl, simulated gastric fluid
[3] = Selection of surfactants: API solubility with different surfactants; details: solubility not done, observation
[4] = cited from earlier work

solubility [1]	solubility ([1]; poloxamer 188 solution, 100 mg/ml, aqueous with cosolvent or surfactant or cyclodextrin)	solubility ([1]; poloxamer 407 solution, 10 mg/ml, aqueous with cosolvent or surfactant or cyclodextrin)	solubility ([1]; polysorbate 20 solution, 5 mg/ml, aqueous with cosolvent or surfactant or cyclodextrin)	solubility [2]	solubility ([3]; SLS, 5 mg/ml)	solubility ([3]; Span 80, 150 ml/ml)	Compound	solubility in alcohol (descriptive) ([4]; alcohol)	solubility in water ([4]; water)	solubility in water (descriptive) ([4]; water)
0.2 µg/mL	321 µg/mL	227 µg/mL	478 µg/mL	494 µg/mL	Not done (Large lump formed	Not done (phase separation observed	Cc1cn(-c2cc(NC(=O)c3ccc(C)c(Nc4nccc(-c5cccnc5)n4)c3)cc(C(F)(F)F)c2)cn1 [API, Nilotinib Hydrochloride Monohydrate]			
							Cc1cn(-c2cc(NC(=O)c3ccc(C)c(Nc4nccc(-c5cccnc5)n4)c3)cc(C(F)(F)F)c2)cn1 [Nilotinib, 4-Methyl-3-[[4-(3-pyridinyl)-2-pyrimidinyl]amino]-N-[5-(4-methyl-1H-imidazol-1-yl)-3-(trifluoromethyl)phenyl] benzamide]	slightly soluble	0.2 µg/mL (≈ 0.378 µM)	very slightly soluble
